The source of these data is US20240158370A1, “CK1 alpha AND DUAL CK1 alpha / GSPT1 DEGRADING COMPOUNDS” (Innovo Therapeutics, Inc., priority 2022, published 2024).

By DC50 is commonly meant the midpoint of the concentration-degradation curve. Low values mean degradation at low concentration, high ones degradation only at high concentration.

Structures are written as SMILES.

One test deals with GSPT1 (Homo sapiens, UniProt P15170+Q96SW2). The test can be described thus: HiBiT degradation assay, GSPT1, Procedure A. It counts as cell-based. More on the design: HiBit-GSPT1 KI HEK293(LgBit) Cells; host or cells: HEK293(LgBit) knock-in cells. As to conditions: six hours incubation. In a few lines:
(§1)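 Luminescence from HiBiT lytic detection reports remaining tagged protein after cells sit six hours at 37° C with compound across ten concentrations (10 μM down to 0.005 μM, 0.1% DMSO). A 4-parameter curve fit gives DC50 and Ymin.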
(With HiBiT, luminescence reflects the tagged protein that the partner subunit can reach.)

In the next test the target is T1, CK1α (Homo sapiens, UniProt P48729+Q96SW2).
T1 construct: CSNK1A1-HiBit KI HEK293(LgBit) Cells; host or cells: HEK293(LgBit) knock-in cells
The test can be described thus: HiBiT degradation assay, CK1α, Procedure A. The following applies: six hours incubation. The format is cell-based. A digest of the protocol: as §1

T1 sequence (P48729 whole entry): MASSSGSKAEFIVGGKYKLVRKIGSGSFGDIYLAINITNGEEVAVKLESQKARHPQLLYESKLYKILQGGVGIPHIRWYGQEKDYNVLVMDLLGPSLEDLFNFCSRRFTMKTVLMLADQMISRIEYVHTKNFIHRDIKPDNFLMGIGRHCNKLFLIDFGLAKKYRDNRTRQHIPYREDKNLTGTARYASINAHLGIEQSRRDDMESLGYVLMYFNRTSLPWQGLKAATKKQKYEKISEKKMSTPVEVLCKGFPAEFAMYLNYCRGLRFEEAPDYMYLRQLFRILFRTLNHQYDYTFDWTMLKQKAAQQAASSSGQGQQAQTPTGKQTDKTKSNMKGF
T1 sequence (Q96SW2 whole entry): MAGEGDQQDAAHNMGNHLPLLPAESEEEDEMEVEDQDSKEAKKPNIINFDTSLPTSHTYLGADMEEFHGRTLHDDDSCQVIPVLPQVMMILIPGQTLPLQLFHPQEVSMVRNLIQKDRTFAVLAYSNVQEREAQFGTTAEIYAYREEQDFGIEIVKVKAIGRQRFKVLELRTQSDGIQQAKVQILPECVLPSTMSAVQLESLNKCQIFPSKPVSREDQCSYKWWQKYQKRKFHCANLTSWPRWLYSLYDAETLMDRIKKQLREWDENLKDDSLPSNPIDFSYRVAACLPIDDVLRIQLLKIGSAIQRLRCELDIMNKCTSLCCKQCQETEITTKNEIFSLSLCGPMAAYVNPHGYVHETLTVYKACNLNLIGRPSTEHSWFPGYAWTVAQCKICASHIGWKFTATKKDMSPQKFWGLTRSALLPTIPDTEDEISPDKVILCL
T1 sequence (Q16531 whole entry partner): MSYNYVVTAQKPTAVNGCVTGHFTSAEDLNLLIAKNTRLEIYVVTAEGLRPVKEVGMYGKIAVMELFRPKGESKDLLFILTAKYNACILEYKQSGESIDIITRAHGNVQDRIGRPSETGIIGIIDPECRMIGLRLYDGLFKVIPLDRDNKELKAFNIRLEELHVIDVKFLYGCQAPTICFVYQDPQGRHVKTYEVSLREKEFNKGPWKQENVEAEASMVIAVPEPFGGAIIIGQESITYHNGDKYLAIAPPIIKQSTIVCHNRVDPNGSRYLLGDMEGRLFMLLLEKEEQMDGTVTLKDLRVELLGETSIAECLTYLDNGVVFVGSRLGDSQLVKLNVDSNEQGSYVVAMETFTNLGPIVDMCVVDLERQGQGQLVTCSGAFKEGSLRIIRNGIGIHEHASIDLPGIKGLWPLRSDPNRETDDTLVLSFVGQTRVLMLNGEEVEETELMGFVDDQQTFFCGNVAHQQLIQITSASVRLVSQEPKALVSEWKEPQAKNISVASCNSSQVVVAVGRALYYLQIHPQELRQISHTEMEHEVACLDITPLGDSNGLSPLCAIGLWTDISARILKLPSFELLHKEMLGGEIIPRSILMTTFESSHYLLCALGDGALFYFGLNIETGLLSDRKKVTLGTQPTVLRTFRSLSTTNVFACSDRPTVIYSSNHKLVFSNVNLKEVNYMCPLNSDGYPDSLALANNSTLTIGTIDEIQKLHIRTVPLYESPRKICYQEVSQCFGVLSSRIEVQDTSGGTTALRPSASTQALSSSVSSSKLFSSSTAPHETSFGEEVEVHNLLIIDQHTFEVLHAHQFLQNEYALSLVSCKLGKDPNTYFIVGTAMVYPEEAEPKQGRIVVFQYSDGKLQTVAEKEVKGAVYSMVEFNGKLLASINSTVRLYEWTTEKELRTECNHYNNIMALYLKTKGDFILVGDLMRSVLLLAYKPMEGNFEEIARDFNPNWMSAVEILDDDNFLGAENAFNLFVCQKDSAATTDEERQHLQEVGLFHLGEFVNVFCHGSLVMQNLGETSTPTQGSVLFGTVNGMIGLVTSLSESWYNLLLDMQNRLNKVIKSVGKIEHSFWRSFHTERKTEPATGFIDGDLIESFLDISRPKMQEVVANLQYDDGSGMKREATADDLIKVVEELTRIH
Chain of GSPT1 (P15170 whole entry): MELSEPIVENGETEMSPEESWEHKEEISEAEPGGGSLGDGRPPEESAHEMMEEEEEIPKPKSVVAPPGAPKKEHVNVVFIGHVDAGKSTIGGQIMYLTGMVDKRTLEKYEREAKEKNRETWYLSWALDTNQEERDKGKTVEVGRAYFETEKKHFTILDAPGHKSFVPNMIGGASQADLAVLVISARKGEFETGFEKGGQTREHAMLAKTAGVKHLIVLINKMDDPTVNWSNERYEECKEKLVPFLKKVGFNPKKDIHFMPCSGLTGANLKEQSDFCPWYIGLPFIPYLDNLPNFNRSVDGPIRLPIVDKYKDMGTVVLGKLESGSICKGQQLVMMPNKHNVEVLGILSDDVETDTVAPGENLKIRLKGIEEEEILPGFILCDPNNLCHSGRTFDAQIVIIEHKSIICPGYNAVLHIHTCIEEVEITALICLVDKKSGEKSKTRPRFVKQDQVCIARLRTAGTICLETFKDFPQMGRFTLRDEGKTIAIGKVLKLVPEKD
Chain of GSPT1 (Q96SW2 whole entry): as the sequence (Q96SW2 whole entry) above
Chain of GSPT1 (Q16531 whole entry partner): as the sequence (Q16531 whole entry partner) above

In the case of `Cn1cnc(-c2ccc3c(c2)CN(C2CCC(=O)NC2=O)C3=O)c1C1CC1` (stereo not drawn) [Example 316], on GSPT1, the DC50 is less than 25 nM and the “GSPT1 Ymin” value is given as “F (F = >75-100% remaining)”. Also, at CK1α, the “CK1α Ymin” value was “D (D = >10- 25% remaining)” and the DC50 is less than 25 nM.

In the case of `Cn1cnc(-c2ccc3c(c2)CN(C2CCC(=O)NC2=O)C3=O)c1-c1ccncc1` (stereo not drawn) [Example 317], at GSPT1, the DC50 was not below 25 nM and the “GSPT1 Ymin” value is recorded as “F (F = >75-100% remaining)”. Also, at CK1α, the “CK1α Ymin” value is given as “D (D = >10- 25% remaining)” and the DC50 is less than 25 nM.

As for `Cn1cnc(-c2ccc3c(c2)CN(C2CCC(=O)NC2=O)C3=O)c1-c1ccnn1C` (stereo not drawn) [Example 318], at GSPT1, the DC50 is less than 25 nM and the “GSPT1 Ymin” value was “F (F = >75-100% remaining)”. For the same compound, on CK1α, the “CK1α Ymin” value was “E (E = >25-75% remaining)” and the DC50 was less than 25 nM.

With `Cc1nocc1-c1c(-c2ccc3c(c2)CN(C2CCC(=O)NC2=O)C3=O)ncn1C` (stereo not drawn) [Example 320], at GSPT1, the DC50 was not below 25 nM and the “GSPT1 Ymin” value is given as “F (F = >75-100% remaining)”. At CK1α, the “CK1α Ymin” value is reported as “D (D = >10- 25% remaining)” and the DC50 is less than 25 nM.

Consider `Cc1cncc(-c2c(-c3ccc4c(c3)CN(C3CCC(=O)NC3=O)C4=O)ncn2C)c1` (stereo not drawn) [Example 321], for which, on GSPT1, the DC50 is not below 25 nM and the “GSPT1 Ymin” value is on record as “F (F = >75-100% remaining)”. Besides, on CK1α, the “CK1α Ymin” value was “D (D = >10- 25% remaining)” and the DC50 is less than 25 nM.

Take `Cc1c(-c2c(-c3ccc4c(c3)CN(C3CCC(=O)NC3=O)C4=O)ncn2C)cnn1C` (stereo not drawn) [Example 322]: on GSPT1, the DC50 was less than 25 nM and the “GSPT1 Ymin” value is on record as “F (F = >75-100% remaining)”. Moreover, on CK1α, the “CK1α Ymin” value is on record as “C (C = 0-10% remaining)” and the DC50 is less than 25 nM.

With `Cc1nn(C)cc1-c1c(-c2ccc3c(c2)CN(C2CCC(=O)NC2=O)C3=O)ncn1C` (stereo not drawn) [Example 323], at GSPT1, the DC50 is not below 25 nM and the “GSPT1 Ymin” value is given as “F (F = >75-100% remaining)”. For the same compound, at CK1α, the “CK1α Ymin” value is given as “E (E = >25-75% remaining)” and the DC50 is not below 25 nM.

As to `Cc1cc(-c2c(-c3ccc4c(c3)CN(C3CCC(=O)NC3=O)C4=O)ncn2C)n(C)n1` (stereo not drawn) [Example 324], on GSPT1, the DC50 is not below 25 nM and the “GSPT1 Ymin” value is given as “F (F = >75-100% remaining)”. In addition, on CK1α, the “CK1α Ymin” value is recorded as “E (E = >25-75% remaining)” and the DC50 is not below 25 nM.

In the case of `Cn1cnc(-c2ccc3c(c2)CN(C2CCC(=O)NC2=O)C3=O)c1-c1cnc(C#N)nc1` (stereo not drawn) [Example 325], at GSPT1, the DC50 is not below 25 nM and the “GSPT1 Ymin” value was “F (F = >75-100% remaining)”. Moreover, on CK1α, the “CK1α Ymin” value is listed as “E (E = >25-75% remaining)” and the DC50 is not below 25 nM.

Regarding `Cn1cnc(-c2ccc3c(c2)CN(C2CCC(=O)NC2=O)C3=O)c1-c1cnn(C2CC2)c1` (stereo not drawn) [Example 326], at GSPT1, the DC50 is less than 25 nM and the “GSPT1 Ymin” value was “F (F = >75-100% remaining)”. Moreover, on CK1α, the “CK1α Ymin” value is recorded as “C (C = 0-10% remaining)” and the DC50 is less than 25 nM.

For `COc1ncccc1-c1c(-c2ccc3c(c2)CN(C2CCC(=O)NC2=O)C3=O)ncn1C` (stereo not drawn) [Example 327], on GSPT1, the DC50 is less than 25 nM and the “GSPT1 Ymin” value was “F (F = >75-100% remaining)”. Also, on CK1α, the “CK1α Ymin” value is “D (D = >10- 25% remaining)” and the DC50 is less than 25 nM.

For `Cn1cnc(-c2ccc3c(c2)CN(C2CCC(=O)NC2=O)C3=O)c1-c1ccn(C)c(=O)c1` (stereo not drawn) [Example 328], on GSPT1, the DC50 was not below 25 nM and the “GSPT1 Ymin” value is given as “F (F = >75-100% remaining)”. In addition, at CK1α, the “CK1α Ymin” value is reported as “D (D = >10- 25% remaining)” and the DC50 was not below 25 nM.

For the compound `COc1ccc(-c2c(-c3ccc4c(c3)CN(C3CCC(=O)NC3=O)C4=O)ncn2C)cn1` (stereo not drawn) [Example 329], at GSPT1, the DC50 is not below 25 nM and the “GSPT1 Ymin” value is reported as “E (E = >25-75% remaining)”. Also, at CK1α, the “CK1α Ymin” value is “C (C = 0-10% remaining)” and the DC50 was less than 25 nM.

As for `CC(C)n1cc(-c2c(-c3ccc4c(c3)CN(C3CCC(=O)NC3=O)C4=O)ncn2C)cn1` (stereo not drawn) [Example 330], on GSPT1, the DC50 was not below 25 nM and the “GSPT1 Ymin” value is on record as “F (F = >75-100% remaining)”. In addition, on CK1α, the “CK1α Ymin” value was “E (E = >25-75% remaining)” and the DC50 was less than 25 nM.

On to `Cn1cnc(-c2ccc3c(c2)CN(C2CCC(=O)NC2=O)C3=O)c1-c1cnn(-c2ccccc2)c1` (stereo not drawn) [Example 332], for which, at GSPT1, the DC50 was not below 25 nM and the “GSPT1 Ymin” value is given as “F (F = >75-100% remaining)”. At CK1α, the “CK1α Ymin” value is listed as “D (D = >10- 25% remaining)” and the DC50 was less than 25 nM.

On to `O=C1CCC(N2Cc3cc(-c4cnn(C(F)(F)F)c4-c4ccccc4)ccc3C2=O)C(=O)N1` (stereo not drawn) [Example 333, 3-(1-oxo-5-(5-phenyl-1-(trifluoromethyl)-1H-pyrazol-4-yl)isoindolin-2-yl)piperidine-2,6-dione], for which, on GSPT1, the DC50 was not below 25 nM and the “GSPT1 Ymin” value is “E (E = >25-75% remaining)”. In addition, on CK1α, the “CK1α Ymin” value is given as “E (E = >25-75% remaining)” and the DC50 is less than 25 nM.

For `CC(F)(F)Cn1ncc(-c2ccc3c(c2)CN(C2CCC(=O)NC2=O)C3=O)c1-c1ccccc1` (stereo not drawn) [Example 336, 3-(5-(1-(2,2-difluoropropyl)-5-phenyl-1H-pyrazol-4-yl)-1-oxoisoindolin-2-yl)piperidine-2,6-dione], on GSPT1, the DC50 is not below 25 nM and the “GSPT1 Ymin” value is “F (F = >75-100% remaining)”. Moreover, at CK1α, the “CK1α Ymin” value is “D (D = >10- 25% remaining)” and the DC50 was not below 25 nM.

For `O=C1CCC(N2Cc3cc(-c4cc(-c5ccccc5)n(C(F)F)n4)ccc3C2=O)C(=O)N1` (stereo not drawn) [Example 337, 3-(5-(1-(difluoromethyl)-5-phenyl-1H-pyrazol-3-yl)-1-oxoisoindolin-2-yl)piperidine-2,6-dione], on GSPT1, the DC50 is not below 25 nM and the “GSPT1 Ymin” value is “F (F = >75-100% remaining)”. At CK1α, the “CK1α Ymin” value was “D (D = >10- 25% remaining)” and the DC50 was not below 25 nM.

For `Cc1c(-c2ccc3c(c2)CN(C2CCC(=O)NC2=O)C3=O)nc(-c2ccccc2)n1C` (stereo not drawn) [Example 338, 3-(5-(1,5-dimethyl-2-phenyl-1H-imidazol-4-yl)-1-oxoisoindolin-2-yl)piperidine-2,6-dione], on GSPT1, the DC50 was not below 25 nM and the “GSPT1 Ymin” value is on record as “F (F = >75-100% remaining)”. On CK1α, the “CK1α Ymin” value is “C (C = 0-10% remaining)” and the DC50 is less than 25 nM.

Turning to `Cn1ncc(-c2ccc3c(c2)CN(C2CCC(=O)NC2=O)C3=O)c1-c1ccc(OC(F)(F)F)cc1` (stereo not drawn) [Example 340, 3-(5-(1-methyl-5-(4-(trifluoromethoxy)phenyl)-1H-pyrazol-4-yl)-1-oxoisoindolin-2-yl)piperidine-2,6-dione], at GSPT1, the DC50 was less than 25 nM and the “GSPT1 Ymin” value is listed as “F (F = >75-100% remaining)”. In addition, on CK1α, the “CK1α Ymin” value was “E (E = >25-75% remaining)” and the DC50 is less than 25 nM.

With `COc1ccc(-c2nn(C(F)F)cc2-c2ccc3c(c2)CN(C2CCC(=O)NC2=O)C3=O)cc1F` (stereo not drawn) [Example 341, 3-(5-(1-(difluoromethyl)-3-(3-fluoro-4-methoxyphenyl)-1H-pyrazol-4-yl)-1-oxoisoindolin-2-yl)piperidine-2,6-dione], on GSPT1, the DC50 was not below 25 nM and the “GSPT1 Ymin” value is on record as “F (F = >75-100% remaining)”. On CK1α, the “CK1α Ymin” value was “E (E = >25-75% remaining)” and the DC50 is less than 25 nM.
